In US6605589B1, “Cathepsin inhibitors in cancer treatment” (Parker Hughes Institute, priority 2000, dated 2003):
Residues, ends and D or L forms follow the SMILES beside them. *: point of attachment. Cbz = O=C(OCc1ccccc1)*; CH2F = FC*

Tested on: SQ-20B, BT-20, U373, HeLa and NCI-H520 cells
Assay: CATI-1 induced apoptosis in presence of caspase inhibitor I (flow cytometry)
Assay type: cell-based, human
Conditions: 50 μM caspase inhibitor I with 50 μM CATI-1, 24 hours; any cell line tested
Description: The percentages indicate the fraction of cells at an early stage of apoptosis (lower right quadrant), as measured by single MC540 fluorescence, and the fraction of cells at an advanced stage of apoptosis (upper right quadrant).
Quantitative flow cytometric apoptosis detection assays were performed on BT-20 (breast cancer), PC-3 (prostate cancer), U373 (glioblastoma), SQ20B (squamous cell carcinoma), HeLa (cervix cancer), and DU145 (prostate cancer). Just prior to the assay, one mg/ml stock solutions of MC540 (Sigma, St. Louis, Mo.) and PI (Sigma, St. Louis, Mo.) were filtered through a 0.22 μm filter and stored at 4° C. in the dark. […] Stained cells were analyzed with a FACStar Plus flow cytometer (Becton Dickinson, San Jose, Calif.) using the 488-nm excitation from an argon laser. […] In each experiment approximately 10,000 cells were analyzed by FACS and the percentage of cells at early (MC540 fluorescence only) and advanced (dual MC540 plus PI fluorescence) stages of apoptosis obtained.
Human cancer cell lines were treated with 50 μM CATI-1 in the presence and absence of 50 μM caspase inhibitor I (Z-Val-Ala-Asp(Ome)-CH2F) (Calbiochem, La Jolla, Calif.) for 24 hours to determine whether caspases were required for cathepsin inhibitor activity. […] Quantitative flow cytometric apoptosis detection assays were performed on treated cells as previously discussed in Example II.

COC(=O)C[C@H](NC(=O)[C@H](C)NC(=O)[C@@H](NC(=O)OCc1ccccc1)C(C)C)C(=O)CF [caspase inhibitor I, Z-Val-Ala-Asp(Ome)-CH2F] (Cbz-Val-Ala-Asp(OMe)-CH2F)
impact on CATI-1 induced apoptosis: no detectable impact
